# Source: patent US4051315A, “6"-Deoxykanamycin B and 6"-deoxytobramycin” (priority 1975, dated 1977)
# Like-named read-outs stand apart in the source and are kept apart here.
# Experiments:
# Format in all cases: cell-based
# [1] = system: P. aeruginosa #130 GAT-1, NPT; assay: two-fold agar dilution MIC, Pa-16
# E. cloacae A21006 NPT-2 = assay: two-fold agar dilution MIC, E1-12
# S. aureus Smith = assay: two-fold agar dilution MIC, Sa-2; conditions: Staphylococcus aureus
# [2] = system: E. coli JR66/W677 NPT-2, GAS; assay: two-fold agar dilution MIC, Ec-53
# [3] = system: P. aeruginosa A20653 NPT-1,2; assay: two-fold agar dilution MIC, Pa-12; conditions: Pseudomonas aeruginosa
# E. coli A20107 NPT-2 = assay: two-fold agar dilution MIC, Ec-49; conditions: Escherichia coli
# E. cloacae A20364 NPT-1 = assay: two-fold agar dilution MIC, E1-2; conditions: Enterobacter cloacae
# P. vulgaris A9436 = assay: two-fold agar dilution MIC, Pv-1
# B. subtilis PCT-219 = assay: two-fold agar dilution MIC, Bs-1; conditions: Bacillus subtilis
# K. pneumoniae D11 = assay: two-fold agar dilution MIC, Kp-1; conditions: Klebsiella pneumoniae
# [4] = system: P. aeruginosa A20896 GAT-3; assay: two-fold agar dilution MIC, Pa-24
# P. mirabilis A9554 CL-R = assay: two-fold agar dilution MIC, Pm-1
# E. coli R5 KAT = assay: two-fold agar dilution MIC, Ec-55
# [5] = system: K. pneumoniae 22-3038 NPT-2, GAS; assay: two-fold agar dilution MIC, Kp-8
# E. coli NR79/W677 KAT = assay: two-fold agar dilution MIC, Ec-9; conditions: Escherichia coli, NR79/W677KAT
# P. aeruginosa GN-315 KAT = assay: two-fold agar dilution MIC, Pa-27
# E. coli NIHJ = assay: two-fold agar dilution MIC, Ec-1
# E. coli ML1630 NPT-1 = assay: two-fold agar dilution MIC, Ec-5; conditions: Escherichia coli
# [6] = system: S. marcescens A21247 NPT-1, GAS; assay: two-fold agar dilution MIC, Sm-16; conditions: Serratia marcescens
# E. coli JR35/C600 NPT-1 = assay: two-fold agar dilution MIC, Ec-10
# E. coli A20732 GAS = assay: two-fold agar dilution MIC, Ec-72; conditions: Escherichia coli, A20732GAS
# S. marcescens A20019 = assay: two-fold agar dilution MIC, Sm-1
# E. coli JR88 CAT-1 = assay: two-fold agar dilution MIC, Ec-62
# P. aeruginosa GN-4925 = assay: two-fold agar dilution MIC, Pa-45; conditions: Pseudomonas aeruginosa
# S. aureus D133 SH, Sth-R = assay: two-fold agar dilution MIC, Sa-4
# [7] = system: P. aeruginosa A20601 GAT-1; assay: two-fold agar dilution MIC, Pa-21; conditions: Pseudomonas aeruginosa
# P. aeruginosa A9930 = assay: two-fold agar dilution MIC, Pa-3; conditions: Pseudomonas aeruginosa
# E. coli P01495 CP.TC-R = assay: two-fold agar dilution MIC, Ec-2; conditions: Escherichia coli, P01495CP.TCR
# [8] = system: S. aureus D137 PC, TC, EM-R; assay: two-fold agar dilution MIC, Sa-9
# [9] = system: Pseudomonas sp. A20621 KAT, NPT-1,2; assay: two-fold agar dilution MIC, Px-10
# S. aureus A20239 NPT-1,2 = assay: two-fold agar dilution MIC, Sa-10
# P. stuartii A20894 GAT-2 = assay: two-fold agar dilution MIC, Ps-2
# [10] = system: a variety of gram-positive and gram-negative bacteria; assay: antibacterial activity by two-fold agar dilution method, overall statement
# [11] = Pseudomonas aeruginosa, Run 1, read-out: MIC
# [12] = Enterobacter cloacae, A21006NPT2
# [13] = Proteus vulgaris, A9436, Run 1, read-out: MIC
# [14] = Pseudomonas aeruginosa, A20896GAT3, Run 1, read-out: MIC
# [15] = Proteus mirabilis, A9554CLR, Run 1, read-out: MIC
# [16] = Klebsiella pneumoniae, Run 1, read-out: MIC
# [17] = Escherichia coli, Run 1, read-out: MIC
# [18] = Escherichia coli, JR35/C600NPT1
# [19] = Serratia marcescens, A20019, Run 1, read-out: MIC
# [20] = Staphylococcus aureus, Run 1, read-out: MIC
# [21] = Pseudomonas, Run 1, read-out: MIC
smiles,measurement,setting,value
"NCC1OC(OC2C(N)CC(N)C(OC3OC(CO)C(O)C(N)C3O)C2O)C(N)CC1O (centres unmarked) [tobramycin, 3'-deoxykanamycin B]",MIC,[1]; [11],3.1 µg/mL
same,MIC,[1]; Run 2,3.1 µg/mL
same,MIC,E. cloacae A21006 NPT-2; [12],1.6 µg/mL
same,MIC,"E. cloacae A21006 NPT-2; Run 2, E1-12",1.6 µg/mL
same,MIC,S. aureus Smith; Run 1,0.4 µg/mL
same,MIC,S. aureus Smith; Run 2,0.2 µg/mL
same,MIC,[2]; Escherichia coli,25 µg/mL
same,MIC,"[2]; Run 2, Ec-53",25 µg/mL
same,MIC,[3]; Run 1,6.3 µg/mL
same,MIC,[3]; Run 2,3.1 µg/mL
same,MIC,"E. coli A20107 NPT-2; A20107NPT2, Run 1",1.6 µg/mL
same,MIC,"E. coli A20107 NPT-2; A20107NPT2, Run 2",1.6 µg/mL
same,MIC,"E. cloacae A20364 NPT-1; A20364NPT1, Run 1",50 µg/mL
same,MIC,"E. cloacae A20364 NPT-1; A20364NPT1, Run 2",1.6 µg/mL
same,MIC,P. vulgaris A9436; [13],0.4 µg/mL
same,MIC,P. vulgaris A9436; Run 2,0.4 µg/mL
same,MIC,"B. subtilis PCT-219; PCT219, Run 1",0.2 µg/mL
same,MIC,"B. subtilis PCT-219; PCT219, Run 2",< 0.05 µg/mL
same,MIC,"K. pneumoniae D11; D11, Run 1",0.4 µg/mL
same,MIC,"K. pneumoniae D11; D11, Run 2",0.8 µg/mL
same,MIC,[4]; [14],> 100 µg/mL
same,MIC,[4]; Run 2,> 100 µg/mL
same,MIC,P. mirabilis A9554 CL-R; [15],0.8 µg/mL
same,MIC,P. mirabilis A9554 CL-R; Run 2,0.8 µg/mL
same,MIC,"E. coli R5 KAT; Escherichia coli, R5KAT",0.8 µg/mL
same,MIC,"E. coli R5 KAT; Run 2, Ec-55",0.8 µg/mL
same,MIC,[5]; [16],25 µg/mL
same,MIC,[5]; Run 2,25 µg/mL
same,MIC,E. coli NR79/W677 KAT; Run 1,1.6 µg/mL
same,MIC,E. coli NR79/W677 KAT; Run 2,0.8 µg/mL
same,MIC,"P. aeruginosa GN-315 KAT; Pseudomonas aeruginosa, GN315, Run 1, read-out: MIC",> 100 µg/mL
same,MIC,P. aeruginosa GN-315 KAT; Run 2,> 100 µg/mL
same,MIC,E. coli NIHJ; [17],0.8 µg/mL
same,MIC,E. coli NIHJ; Run 2,0.8 µg/mL
same,MIC,"E. coli ML1630 NPT-1; ML1630NPT1, Run 1",1.6 µg/mL
same,MIC,"E. coli ML1630 NPT-1; ML1630NPT1, Run 2",0.8 µg/mL
same,MIC,[6]; Run 1,50 µg/mL
same,MIC,[6]; Run 2,50 µg/mL
same,MIC,E. coli JR35/C600 NPT-1; [18],1.6 µg/mL
same,MIC,"E. coli JR35/C600 NPT-1; Run 2, Ec-10",1.6 µg/mL
same,MIC,E. coli A20732 GAS; Run 1,50 µg/mL
same,MIC,E. coli A20732 GAS; Run 2,1.6 µg/mL
same,MIC,S. marcescens A20019; [19],6.3 µg/mL
same,MIC,"S. marcescens A20019; Serratia marcescens, A20019, Run 2",12.5 µg/mL
same,MIC,"E. coli JR88 CAT-1; Escherichia coli, JR88CAT1",1.6 µg/mL
same,MIC,"E. coli JR88 CAT-1; Run 2, Ec-62",1.6 µg/mL
same,MIC,"P. aeruginosa GN-4925; GN4925, Run 1",100 µg/mL
same,MIC,"P. aeruginosa GN-4925; GN4925, Run 2",50 µg/mL
same,MIC,"S. aureus D133 SH, Sth-R; Run 2",1.6 µg/mL
same,MIC,"S. aureus D133 SH, Sth-R; [20]",1.6 µg/mL
same,MIC,"[7]; A20601GAT1, Run 1",3.1 µg/mL
same,MIC,"[7]; A20601GAT1, Run 2",1.6 µg/mL
same,MIC,"P. aeruginosa A9930; A9930, Run 1",0.4 µg/mL
same,MIC,"P. aeruginosa A9930; A9930, Run 2",0.8 µg/mL
same,MIC,E. coli P01495 CP.TC-R; Run 1,1.6 µg/mL
same,MIC,E. coli P01495 CP.TC-R; Run 2,0.8 µg/mL
same,MIC,[8]; Run 2,3.1 µg/mL
same,MIC,[8]; [20],3.1 µg/mL
same,MIC,[9]; [21],25 µg/mL
same,MIC,[9]; Run 2,25 µg/mL
same,MIC,"S. aureus A20239 NPT-1,2; Run 2, Sa-10",1.6 µg/mL
same,MIC,"P. stuartii A20894 GAT-2; Providencia stuartii, A20894GAT2",12.5 µg/mL
same,MIC,"P. stuartii A20894 GAT-2; Run 2, Ps-2",12.5 µg/mL
"CC1OC(OC2C(N)CC(N)C(OC3OC(CN)C(O)CC3N)C2O)C(O)C(N)C1O (centres unmarked) [compound 6, 6""-Deoxytobramycin]",MIC,[1]; [11],6.3 µg/mL
same,MIC,[1]; Run 2,6.3 µg/mL
same,MIC,E. cloacae A21006 NPT-2; [12],1.6 µg/mL
same,MIC,"E. cloacae A21006 NPT-2; Run 2, E1-12",1.6 µg/mL
same,MIC,S. aureus Smith; Run 1,0.2 µg/mL
same,MIC,S. aureus Smith; Run 2,0.1 µg/mL
same,MIC,[2]; Escherichia coli,25 µg/mL
same,MIC,"[2]; Run 2, Ec-53",25 µg/mL
same,MIC,[3]; Run 1,6.3 µg/mL
same,MIC,[3]; Run 2,3.1 µg/mL
same,MIC,"E. coli A20107 NPT-2; A20107NPT2, Run 1",1.6 µg/mL
same,MIC,"E. coli A20107 NPT-2; A20107NPT2, Run 2",0.8 µg/mL
same,MIC,"E. cloacae A20364 NPT-1; A20364NPT1, Run 1",1.6 µg/mL
same,MIC,"E. cloacae A20364 NPT-1; A20364NPT1, Run 2",1.6 µg/mL
same,MIC,P. vulgaris A9436; [13],0.2 µg/mL
same,MIC,P. vulgaris A9436; Run 2,0.2 µg/mL
same,MIC,"B. subtilis PCT-219; PCT219, Run 1",< 0.05 µg/mL
same,MIC,"B. subtilis PCT-219; PCT219, Run 2",< 0.05 µg/mL
same,MIC,"K. pneumoniae D11; D11, Run 1",0.2 µg/mL
same,MIC,"K. pneumoniae D11; D11, Run 2",0.4 µg/mL
same,MIC,[4]; [14],> 100 µg/mL
same,MIC,[4]; Run 2,> 100 µg/mL
same,MIC,P. mirabilis A9554 CL-R; [15],0.8 µg/mL
same,MIC,P. mirabilis A9554 CL-R; Run 2,0.8 µg/mL
same,MIC,"E. coli R5 KAT; Escherichia coli, R5KAT",0.4 µg/mL
same,MIC,"E. coli R5 KAT; Run 2, Ec-55",0.4 µg/mL
same,MIC,[5]; [16],25 µg/mL
same,MIC,[5]; Run 2,25 µg/mL
same,MIC,E. coli NR79/W677 KAT; Run 1,1.6 µg/mL
same,MIC,E. coli NR79/W677 KAT; Run 2,0.8 µg/mL
same,MIC,"P. aeruginosa GN-315 KAT; Pseudomonas aeruginosa, GN315, Run 2, read-out: MIC",> 100 µg/mL
same,MIC,P. aeruginosa GN-315 KAT; Run 1,> 100 µg/mL
same,MIC,E. coli NIHJ; [17],0.8 µg/mL
same,MIC,E. coli NIHJ; Run 2,0.8 µg/mL
same,MIC,"E. coli ML1630 NPT-1; ML1630NPT1, Run 1",1.6 µg/mL
same,MIC,"E. coli ML1630 NPT-1; ML1630NPT1, Run 2",0.8 µg/mL
same,MIC,[6]; Run 1,100 µg/mL
same,MIC,[6]; Run 2,50 µg/mL
same,MIC,E. coli JR35/C600 NPT-1; [18],0.8 µg/mL
same,MIC,"E. coli JR35/C600 NPT-1; Run 2, Ec-10",0.8 µg/mL
same,MIC,E. coli A20732 GAS; Run 1,50 µg/mL
same,MIC,E. coli A20732 GAS; Run 2,25 µg/mL
same,MIC,S. marcescens A20019; Run 2,6.3 µg/mL
same,MIC,S. marcescens A20019; [19],6.3 µg/mL
same,MIC,"E. coli JR88 CAT-1; Escherichia coli, JR88CAT1",3.1 µg/mL
same,MIC,"E. coli JR88 CAT-1; Run 2, Ec-62",3.1 µg/mL
same,MIC,"P. aeruginosa GN-4925; GN4925, Run 1",100 µg/mL
same,MIC,"P. aeruginosa GN-4925; GN4925, Run 2",100 µg/mL
same,MIC,"S. aureus D133 SH, Sth-R; Run 2",1.6 µg/mL
same,MIC,"S. aureus D133 SH, Sth-R; [20]",1.6 µg/mL
same,MIC,"[7]; A20601GAT1, Run 1",3.1 µg/mL
same,MIC,"[7]; A20601GAT1, Run 2",3.1 µg/mL
same,MIC,"P. aeruginosa A9930; A9930, Run 1",0.4 µg/mL
same,MIC,"P. aeruginosa A9930; A9930, Run 2",0.4 µg/mL
same,MIC,E. coli P01495 CP.TC-R; Run 1,0.8 µg/mL
same,MIC,E. coli P01495 CP.TC-R; Run 2,0.8 µg/mL
same,MIC,[8]; Run 2,3.1 µg/mL
same,MIC,[8]; [20],3.1 µg/mL
same,antibacterial activity,[10],excellent antibacterial activity
same,MIC,[9]; [21],50 µg/mL
same,MIC,[9]; Run 2,50 µg/mL
same,MIC,"S. aureus A20239 NPT-1,2; Run 2, Sa-10",0.8 µg/mL
same,MIC,"S. aureus A20239 NPT-1,2; Staphylococcus aureus",0.8 µg/mL
same,MIC,"P. stuartii A20894 GAT-2; Providencia stuartii, A20894GAT2, Run 1, Ps-2, read-out: MIC",25 µg/mL
same,MIC,"P. stuartii A20894 GAT-2; Run 2, Ps-2",25 µg/mL
